Data from publication PMC5004176, “The antifungal plant defensin AtPDF2.3 from Arabidopsis thaliana blocks potassium channels” (Scientific Reports, 2016).
Ends that are not written are not given here.

What was measured:
Nav1.5 = assay: Two-electrode voltage-clamp on Nav1.5 expressed in X. laevis oocytes; type: cell-based; conditions: 5 μM, n ≥ 4
[1] = system: Saccharomyces cerevisiae BY4741 WT; assay: Yeast growth inhibitory assay; type: cell-based; conditions: MM medium, ~10^6 cells/mL, 24 hours, OD490nm, mean ± SEM, n ≥ 3, read-out: IC50 (growth inhibition)
[2] = system: Saccharomyces cerevisiae BY4741 ∆vhc1; assay: Yeast growth inhibitory assay; type: cell-based; conditions: BY4741 ∆vhc1, MM medium, 24 hours, OD490nm, mean ± SEM, n ≥ 3; read-out: IC50 (growth inhibition)
[3] = system: Saccharomyces cerevisiae BY4741 ∆tok1; assay: Yeast growth inhibitory assay; type: cell-based; conditions: BY4741 ∆tok1, MM medium, 24 hours, OD490nm, mean ± SEM, n ≥ 3; read-out: IC50 (growth inhibition)
HepG2 cells = type: cell-based; conditions: up to 25 μM, 24 hours, XTT, relative to untreated, at least two experiments in quadruplicate
Method: HepG2 cells were seeded at 10.000 cells/well in 96-well plates and incubated for 24 hours. Subsequently, cells were treated either with water (untreated) or rAtPDF2.3 (0.01 μM–23.5 μM) for 24 hours after which cell viability was determined using the ‘Cell Proliferation Kit II (XTT) as described previously. ANOVA followed by Dunnett post hoc test was performed to analyze statistically significant differences between untreated and rAtPDF2.3-treated samples.
Supplementary Figure S4 Activity of rAtPDF2.3 on HepG2 cell viability. HepG2 cells were treated either with water (untreated) or rAtPDF2.3 (0.01 µM – 24.3 µM) for 24 hours, after which cell viability was determined by XTT staining. Results are expressed relative to the untreated samples. Mean ± standard error of at least two experiments in quadruplicate is shown. ANOVA followed by Dunnet post hoc test performed to analyze statistically significant differences between untreated and rAtPDF2.3-treated samples; * represents P = 0.03.
(1 picture or pasted object on this page, not shown here)

Kv1.2 channels = assay: Two-electrode voltage-clamp on Kv1.2 expressed in X. laevis oocytes; conditions: for inhibition of the potassium current: Kv1.2, n ≥ 5
Method: (§1) For the expression of the voltage-gated potassium channels (rKv1.1, rKv1.2, hKv1.3, rKv1.4, rKv1.5, rKv1.6, Shaker IR, hKv3.1, rKv4.3, and hERG) in Xenopus laevis oocytes, the linearized plasmids were transcribed using the T7 or SP6 mMESSAGE-mMACHINE transcription kit (Ambion). The harvesting of stage V–VI oocytes from an anaesthetized female X. laevis frog was previously described[59]. Oocytes were injected with 50 nL of cRNA at a concentration of 1 ng/nL using a micro-injector (Drummond Scientific, USA). The oocytes were incubated in a solution containing (in mM): NaCl, 96; KCl, 2; CaCl2, 1.8; MgCl2, 2 and HEPES, 5 (pH 7.4), supplemented with 50 mg/L gentamycin sulfate.
Two-electrode voltage-clamp recordings were performed at room temperature (18–22 °C) using a Geneclamp 500 amplifier (Molecular Devices, USA) controlled by a pClamp data acquisition system (Axon Instruments, USA). Whole cell currents from oocytes were recorded 1–4 days after injection. Bath solution composition was ND96 (in mM): NaCl, 96; KCl, 2; CaCl2, 1.8; MgCl2, 2 and HEPES, 5 (pH 7.4) or HK (in mM): NaCl, 2; KCl, 96; CaCl2, 1.8; MgCl2, 2 and HEPES, 5 (pH 7.4). Voltage and current electrodes were filled with 3 M KCl. Resistances of both electrodes were kept between 0.7 and 1.5 MΩ. The elicited currents were filtered at 0.5 kHz and sampled at 2 kHz (for potassium currents) or filtered at 2 kHz and sampled at 20 kHz (for sodium currents) using a four-pole low-pass Bessel filter. Leak subtraction was performed using a -P/4 protocol. Kv1.1–Kv1.6 and Shaker currents were evoked by 250 ms depolarizations to 0 mV followed by a 250 ms pulse to −50 mV, from a holding potential of −90 mV. Current traces of hERG channels were elicited by applying a +40 mV prepulse for 2 s followed by a step to −120 mV for 2 s. […] In order to investigate the current–voltage relationship, current traces were evoked by 10 mV depolarization steps from a holding potential of −90 mV. To assess the concentration dependency of the toxin induced inhibitory effects, a concentration–response curve was constructed, in which the percentage of current inhibition was plotted as a function of toxin concentration. Data were fitted with the Hill equation: y = 100/[1 + (IC50/[toxin])^h], were y is the amplitude of the toxin-induced effect, IC50 is the toxin concentration at half-maximal efficacy, [toxin] is the toxin concentration, and h is the Hill coefficient. GV curves were calculated from IV relationships as follows: gK = IK/(Em−EK) with EK = (RT/zF)ln[K #0]o/[K #0]i. In these equations gK represents the conductance, IK the potassium current, Em the membrane potential, EK the reversal potential, R the gas constant (8.31 J/K mol), T the temperature, z the charge of the ion (for K+ ions: z = 1), F the Faraday’s constant (96.500 C/mol), [K #0]o and [K #0]i respectively are the extracellular and intracellular K+ ion concentrations. The values of IK or gK were plotted as function of voltage and fitted using the Boltzmann equation: gK/gmax = [1 + exp(Vg−V)/k]−1, were gmax represents maximal gK, Vg is the voltage corresponding to half-maximal conductance, and k is the slope factor. Comparison of two sample means was made using a paired Student’s t test (P < 0.05). All data represent at least three independent experiments (n ≥ 3) and are presented as mean ± standard error.

Kv2.1 = assay: Two-electrode voltage-clamp on Kv2.1 expressed in X. laevis oocytes; conditions: 3 μM, n ≥ 3
Method: as §1
Two-electrode voltage-clamp recordings were performed at room temperature (18–22 °C) using a Geneclamp 500 amplifier (Molecular Devices, USA) controlled by a pClamp data acquisition system (Axon Instruments, USA). Whole cell currents from oocytes were recorded 1–4 days after injection. Bath solution composition was ND96 (in mM): NaCl, 96; KCl, 2; CaCl2, 1.8; MgCl2, 2 and HEPES, 5 (pH 7.4) or HK (in mM): NaCl, 2; KCl, 96; CaCl2, 1.8; MgCl2, 2 and HEPES, 5 (pH 7.4). Voltage and current electrodes were filled with 3 M KCl. Resistances of both electrodes were kept between 0.7 and 1.5 MΩ. […] GV curves were calculated from IV relationships as follows: gK = IK/(Em−EK) with EK = (RT/zF)ln[K #0]o/[K #0]i. […]

Substance: rAtPDF2.3: Arabidopsis thaliana plant defensin AtPDF2.3 produced recombinantly in Pichia pastoris (RTCESKSHRFKGPCVSTHNCANVCHNEGFGGGKCRGFRRRCYCTRHC; ends and bridges not checked; cysteine pairing not given here)
- activity on Nav1.5 (Nav1.5): does not show activity
- IC50 [1]: 8.1 ± 0.9 µM
- IC50 [2]: 8 ± 0.2 µM
- IC50 [3]: 7.7 ± 0.5 µM
- cell viability in HepG2 cells (HepG2 cells): does not reduce cell viability
- inhibition of the potassium current (Kv1.2 channels; 2 μM, HK solution): 66 ± 4%
- inhibition of the potassium current (Kv1.2 channels; 2 μM, ND96 solution): 59 ± 3%
- activity on Kv1.2 at single concentration (Kv1.2 channels; 3 μM, n ≥ 3): can block
- reversal potential EK after application of defensin (Kv1.2 channels; HK solution, 2 μM, Kv1.2, control −4 ± 1 mV, P > 0.05, n ≥ 4): −2 ± 1 mV
- V1/2 of gV curve in the presence of defensin (Kv1.2 channels; ND96, 2 μM, Kv1.2, control 8 ± 3 mV, n ≤ 4 as printed): 5 ± 2 mV
- reversibility of Kv1.2 block upon washout (Kv1.2 channels; current recovers quickly and completely upon washout (data not shown)): blocking is reversible
- IC50 (Kv1.2 channels; read-out: IC50 for Kv1.2, two-electrode voltage-clamp, X. laevis oocytes, concentration-response curve fitted with Hill equation, mean ± standard error, n ≥ 3): 1.3 ± 0.2 µM
- voltage dependence of inhibition of Kv1.2 channels (Kv1.2 channels; test potentials from −30 to +30 mV): not voltage-dependent
- activity on Kv2.1 (Shab) at single concentration (Kv2.1): no effect
